# Test results reported in PubChem BioAssay AID1963965 (Molecular Pharmacology Branch, DTP, NCI, 2024).
# Test system: 996289-038-R-J1-PDC spheroid viability
# Assay: Anticancer human tumor 996289-038-R-J1-PDC patient-derived colon adenocarcinoma cell line growth inhibition [PI3K]
# Details: spheroids with HUVEC and MSC; for IC50: curve of first compound; for viability, T/C: stronger effect = lower value
# From the text: Combinatorial screen of targeted agents with the PI3K inhibitors inavolisib, alpelisib, duvelisib, and copanlisib in multi-cell type tumor spheroids
# A high-throughput screen of multi-cell type tumor spheroids was designed to identify active combinations of targeted small molecules and PI3K pathway inhibitors. Complex spheroids include a stromal component modeled by human endothelial cells (HUVEC) and fibroblasts modeled by human mesenchymal stem cells (MSCs). The concentration ranges selected for each drug and investigational agent were based upon clinically achievable concentrations if the clinical Cmax of the agent was known.
# Compounds. The drugs and investigational agents: inavolisib (NSC800729), alpelisib (NSC765974), duvelisib (NSC772469), copanlisib (NSC816437), ipatasertib (NSC767898), afuresertib (NSC778305), talazoparib (NSC767125), sapanisertib (NSC764658), selumetinib (NSC741078), tovorafenib (DAY101, NSC766906), vemurafenib (NSC761431), ravoxertinib (NSC781343), sotorasib (NSC818433), MRTX1133 (NSC 836407), abemaciclib (NSC 768073), palbociclib (NSC758247), venetoclax (NSC 766270), SY5609 (NSC837396), enzalutamide (NSC755605), and darolutamide (NSC825331), were obtained from the National Cancer Institute (NCI) Developmental Therapeutics Program Chemical Repository. The FDA-approved anticancer drug set is available from the NCI Developmental Therapeutics Program. […] The stock solutions were prepared in dimethyl sulfoxide (DMSO, Sigma-Aldrich, St. Louis, MO, cat. D2650) at 800-fold the tested concentration and stored at -70 degrees C prior to their use. All drugs and investigational agents were tested over a range starting from a high concentration at or near the clinical Cmax and decreasing in half-log increments. If the clinical Cmax for an agent had not been determined, the highest concentration tested was 10 microM.
# Cell Culture. All cells were maintained in an incubator at 37 degrees C and 5% CO2 with 95% humidity. The PDC lines were cultured according to standard operating procedures established by the NCI PDMR (https://pdmr.cancer.gov/sops/default.htm). All PDCs were thawed and cultured in Matrigel-coated flasks prepared with a working solution of 1X Ham's F-12 nutrient mix, without supplementation (Invitrogen, Waltham, MA, cat. 11765054), 100 U/mL penicillin-streptomycin (Invitrogen, cat. 15140122), and 2.5% Matrigel (Corning Inc., Corning, NY, cat. 354248) for the first three passages. The 354836-022-R-J1-PDC, 475296-252-R-J1-PDC, and 997726-040-R-J2-PDC lines were cultured in 6A media, which includes advanced DMEM/F-12 (Thermo Fisher Scientific, cat. 12634028), 10 mM HEPES (Thermo Fisher Scientific, cat. 15630080), 1X GlutaMAX supplement (Thermo Fisher Scientific, cat. 35050061), 0.1 mg/mL primocin (InvivoGen, San Diego, CA, cat. ant-pm-2), 10% defined fetal bovine serum, heat inactivated (HyClone Laboratories Inc., Logan, UT, cat. SH30070.03HI), 50% L-WRN conditioned media (ATCC, cat. CRL-3276), 1.25 mM N-Acetyl-L-cysteine (Sigma-Aldrich, cat. A9165), 10 mM nicotinamide (Sigma-Aldrich, cat. N0636), 1X B-27 supplement (Thermo Fisher Scientific, cat. 17504044), 1X N-2 supplement (Thermo Fisher Scientific, cat. 17502048), and 10 microM Y-27632 dihydrochloride (Tocris Bioscience, Bristol, United Kingdom, cat. 1254). The 624824-186-R-J2-PDC line was cultured in 6C/Colon 1B media, which includes all 6A media components plus 50 ng/mL human EGF recombinant protein (Thermo Fisher Scientific, cat. PHG0311). […]
# 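Note: spheroids exposed to compounds for seven days before viability read.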
# 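Throughout, for viability, T/C: luminescence used as a proxy for viable cell amount; percent viability relative to DMSO vehicle control as 100%.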
compound,measurement,setting,value
CC(C)NCC(C(=O)N1CCN(c2ncnc3c2C(C)CC3O)CC1)c1ccc(Cl)cc1 (configuration not stated) + COc1c(OCCCN2CCOCC2)ccc2c3n(c(=NC(=O)c4cnc(N)nc4)nc12)CCN3,IC50,second compound 0.00316 µM,> 10 µM
same,IC50,second compound 0.01 µM,> 10 µM
same,IC50,second compound 0.0316 µM,> 10 µM
same,IC50,second compound 0.1 µM,4.89 µM
same,IC50,second compound 0.316 µM,< 0.0316 µM
same,IC50,second compound 1 µM,< 0.0316 µM
same,"viability, T/C","second compound 0.00316 µM, first compound 0.0316 µM",98.9%
same,"viability, T/C","second compound 0.00316 µM, first compound 0.1 µM",82.3%
same,"viability, T/C","second compound 0.00316 µM, first compound 0.316 µM",103%
same,"viability, T/C","second compound 0.00316 µM, first compound 1 µM",103%
same,"viability, T/C","second compound 0.00316 µM, first compound 3.16 µM",103%
same,"viability, T/C","second compound 0.00316 µM, first compound 10 µM",62.2%
same,"viability, T/C","second compound 0.01 µM, first compound 0.0316 µM",87.6%
same,"viability, T/C","second compound 0.01 µM, first compound 0.1 µM",84.9%
same,"viability, T/C","second compound 0.01 µM, first compound 0.316 µM",101%
same,"viability, T/C","second compound 0.01 µM, first compound 1 µM",102%
same,"viability, T/C","second compound 0.01 µM, first compound 3.16 µM",106%
same,"viability, T/C","second compound 0.01 µM, first compound 10 µM",65.3%
same,"viability, T/C","second compound 0.0316 µM, first compound 0.0316 µM",86.3%
same,"viability, T/C","second compound 0.0316 µM, first compound 0.1 µM",77.1%
same,"viability, T/C","second compound 0.0316 µM, first compound 0.316 µM",78%
same,"viability, T/C","second compound 0.0316 µM, first compound 1 µM",89%
same,"viability, T/C","second compound 0.0316 µM, first compound 3.16 µM",76.1%
same,"viability, T/C","second compound 0.0316 µM, first compound 10 µM",51.1%
same,"viability, T/C","second compound 0.1 µM, first compound 0.0316 µM",59.7%
same,"viability, T/C","second compound 0.1 µM, first compound 0.1 µM",55.8%
same,"viability, T/C","second compound 0.1 µM, first compound 0.316 µM",57%
same,"viability, T/C","second compound 0.1 µM, first compound 1 µM",66.9%
same,"viability, T/C","second compound 0.1 µM, first compound 3.16 µM",57.3%
same,"viability, T/C","second compound 0.1 µM, first compound 10 µM",36.7%
same,"viability, T/C","second compound 0.316 µM, first compound 0.0316 µM",32.9%
same,"viability, T/C","second compound 0.316 µM, first compound 0.1 µM",33.7%
same,"viability, T/C","second compound 0.316 µM, first compound 0.316 µM",38.1%
same,"viability, T/C","second compound 0.316 µM, first compound 1 µM",32.5%
same,"viability, T/C","second compound 0.316 µM, first compound 3.16 µM",38.6%
same,"viability, T/C","second compound 0.316 µM, first compound 10 µM",27.1%
same,"viability, T/C","second compound 1 µM, first compound 0.0316 µM",24%
same,"viability, T/C","second compound 1 µM, first compound 0.1 µM",18.5%
same,"viability, T/C","second compound 1 µM, first compound 0.316 µM",18%
same,"viability, T/C","second compound 1 µM, first compound 1 µM",23%
same,"viability, T/C","second compound 1 µM, first compound 3.16 µM",20.1%
same,"viability, T/C","second compound 1 µM, first compound 10 µM",15.3%
